Experimental data taken from PubChem BioAssay AID2060904 (Molecular Pharmacology Branch, DTP, NCI, 2025).

Tested on: 349418-098-R-PDC complex spheroid viability
Experiment: Anticancer human tumor 349418-098-R-PDC patient-derived lung adenocarcinoma cell line growth inhibition [RAS]
Details: for IC50: curve of first compound; for viability, T/C: stronger effect = lower value
Procedure, shortened: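 Multi-cell-type spheroids: tumor cells plus HUVEC endothelial cells and mesenchymal stem cells. RAS-pathway inhibitors were combined with targeted agents, each dosed in half-log steps down from clinical Cmax, or from 10 microM when Cmax was unknown.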

[1] = second compound 0.0316 µM, first compound 0.0316 µM
[2] = second compound 0.0316 µM, first compound 0.1 µM
[3] = second compound 0.0316 µM, first compound 0.316 µM
[4] = second compound 0.0316 µM, first compound 1 µM
[5] = second compound 0.1 µM, first compound 0.0316 µM
[6] = second compound 0.1 µM, first compound 0.1 µM
[7] = second compound 0.1 µM, first compound 0.316 µM
[8] = second compound 0.1 µM, first compound 1 µM
[9] = second compound 0.316 µM, first compound 0.0316 µM
[10] = second compound 0.316 µM, first compound 0.1 µM
[11] = second compound 0.316 µM, first compound 0.316 µM
[12] = second compound 0.316 µM, first compound 1 µM
[13] = second compound 1 µM, first compound 0.0316 µM
[14] = second compound 1 µM, first compound 0.1 µM
[15] = second compound 1 µM, first compound 0.316 µM
[16] = second compound 1 µM, first compound 1 µM
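Also: spheroids exposed to compound for seven days before viability readout.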

CC(=O)OC12COC1CC(O)C1(C)C(=O)C(O)C3=C(C)C(OC(=O)C(O)C(NC(=O)OC(C)(C)C)c4ccccc4)CC(O)(C(OC(=O)c4ccccc4)C21)C3(C)C (stereo unspecified) + CCn1c(-c2cccnc2C(C)OC)c2c3cc(ccc31)N1CCOC(CC(NC(=O)C(C(C)C)N(C)C(=O)C3(F)CCN(C(=O)C#CC(C)(C)N(C)C)CC3)C(=O)N3CCCC(N3)C(=O)OCC(C)(C)C2)C1 showed an IC50 (second compound 0.000949 µM) of under 31.6 nM, an IC50 (second compound 0.003 µM) of under 31.6 nM and an IC50 (second compound 0.00949 µM) of under 31.6 nM. It also gave an IC50 (second compound 0.03 µM) of under 31.6 nM, an IC50 (second compound 0.0949 µM) of under 31.6 nM and an IC50 (second compound 0.3 µM) of under 31.6 nM. It also gave a viability, T/C (second compound 0.000949 µM, first compound 0.0316 µM) of 13.4%, a viability, T/C (second compound 0.000949 µM, first compound 0.1 µM) of 13% and a viability, T/C (second compound 0.000949 µM, first compound 0.316 µM) of 15.4%. It also gave a viability, T/C (second compound 0.000949 µM, first compound 1 µM) of 16.4%, a viability, T/C (second compound 0.000949 µM, first compound 3.16 µM) of 15.6% and a viability, T/C (second compound 0.000949 µM, first compound 10 µM) of 17.3%. The viability, T/C (second compound 0.003 µM, first compound 0.0316 µM) was 13.8%, the viability, T/C (second compound 0.003 µM, first compound 0.1 µM) was 13.9% and the viability, T/C (second compound 0.003 µM, first compound 0.316 µM) was 10.9%. For the same molecule, the viability, T/C (second compound 0.003 µM, first compound 1 µM) was 13.8%, the viability, T/C (second compound 0.003 µM, first compound 3.16 µM) was 16.8% and the viability, T/C (second compound 0.003 µM, first compound 10 µM) was 16.9%. The viability, T/C (second compound 0.00949 µM, first compound 0.0316 µM) was 13.2%, the viability, T/C (second compound 0.00949 µM, first compound 0.1 µM) was 13.6% and the viability, T/C (second compound 0.00949 µM, first compound 0.316 µM) was 10.2%. For the same molecule, the viability, T/C (second compound 0.00949 µM, first compound 1 µM) was 13.5%, the viability, T/C (second compound 0.00949 µM, first compound 3.16 µM) was 17.4% and the viability, T/C (second compound 0.00949 µM, first compound 10 µM) was 15.9%. The viability, T/C (second compound 0.03 µM, first compound 0.0316 µM) was 12.6%, the viability, T/C (second compound 0.03 µM, first compound 0.1 µM) was 13.3% and the viability, T/C (second compound 0.03 µM, first compound 0.316 µM) was 16.2%. It also gave a viability, T/C (second compound 0.03 µM, first compound 1 µM) of 16.2%, a viability, T/C (second compound 0.03 µM, first compound 3.16 µM) of 17.4% and a viability, T/C (second compound 0.03 µM, first compound 10 µM) of 12.6%. It also gave a viability, T/C (second compound 0.0949 µM, first compound 0.0316 µM) of 12.2%, a viability, T/C (second compound 0.0949 µM, first compound 0.1 µM) of 13.3% and a viability, T/C (second compound 0.0949 µM, first compound 0.316 µM) of 15.7%. For the same molecule, the viability, T/C (second compound 0.0949 µM, first compound 1 µM) was 15.9%, the viability, T/C (second compound 0.0949 µM, first compound 3.16 µM) was 16.9% and the viability, T/C (second compound 0.0949 µM, first compound 10 µM) was 16.8%. It also gave a viability, T/C (second compound 0.3 µM, first compound 0.0316 µM) of 13%, a viability, T/C (second compound 0.3 µM, first compound 0.1 µM) of 13.2% and a viability, T/C (second compound 0.3 µM, first compound 0.316 µM) of 14.7%. It also gave a viability, T/C (second compound 0.3 µM, first compound 1 µM) of 15%, a viability, T/C (second compound 0.3 µM, first compound 3.16 µM) of 19.1% and a viability, T/C (second compound 0.3 µM, first compound 10 µM) of 21.1%.
CC(C)NCC(C(=O)N1CCN(c2ncnc3c2C(C)CC3O)CC1)c1ccc(Cl)cc1 (stereo unspecified) + C#Cc1c(F)ccc2cc(O)cc(-c3ncc4c(N5CC6CCC(C5)N6)nc(OCC56CCCN5CC(F)C6)nc4c3F)c12 was tested, and the IC50 (second compound 0.0316 µM) was 342 nM, the IC50 (second compound 0.1 µM) was 572 nM and the IC50 (second compound 0.316 µM) was 186 nM. For the same molecule, the IC50 (second compound 1 µM) was 347 nM, the IC50 (second compound 3.16 µM) was 519 nM and the IC50 (second compound 10 µM) was 35 nM. For the same molecule, the viability, T/C [1] was 84%, the viability, T/C [2] was 59.1% and the viability, T/C [3] was 60.1%. The viability, T/C [4] was 29.7%, the viability, T/C (second compound 0.0316 µM, first compound 3.16 µM) was 25.2% and the viability, T/C (second compound 0.0316 µM, first compound 10 µM) was 9.07%. It also gave a viability, T/C [5] of 62.7%, a viability, T/C [6] of 78.9% and a viability, T/C [7] of 68.8%. It also gave a viability, T/C [8] of 32.4%, a viability, T/C (second compound 0.1 µM, first compound 3.16 µM) of 20.9% and a viability, T/C (second compound 0.1 µM, first compound 10 µM) of 11.5%. It also gave a viability, T/C [9] of 72.6%, a viability, T/C [10] of 46.6% and a viability, T/C [11] of 51.7%. It also gave a viability, T/C [12] of 31.1%, a viability, T/C (second compound 0.316 µM, first compound 3.16 µM) of 21.5% and a viability, T/C (second compound 0.316 µM, first compound 10 µM) of 8.74%. The viability, T/C [13] was 75%, the viability, T/C [14] was 54.8% and the viability, T/C [15] was 62.9%. The viability, T/C [16] was 28.8%, the viability, T/C (second compound 1 µM, first compound 3.16 µM) was 27.3% and the viability, T/C (second compound 1 µM, first compound 10 µM) was 7.4%. It also gave a viability, T/C (second compound 3.16 µM, first compound 0.0316 µM) of 61.9%, a viability, T/C (second compound 3.16 µM, first compound 0.1 µM) of 75.1% and a viability, T/C (second compound 3.16 µM, first compound 0.316 µM) of 55.1%. It also gave a viability, T/C (second compound 3.16 µM, first compound 1 µM) of 39.2%, a viability, T/C (second compound 3.16 µM, first compound 3.16 µM) of 19.7% and a viability, T/C (second compound 3.16 µM, first compound 10 µM) of 10.7%. For the same molecule, the viability, T/C (second compound 10 µM, first compound 0.0316 µM) was 60.7%, the viability, T/C (second compound 10 µM, first compound 0.1 µM) was 26.3% and the viability, T/C (second compound 10 µM, first compound 0.316 µM) was 28.1%. It also gave a viability, T/C (second compound 10 µM, first compound 1 µM) of 47.3%, a viability, T/C (second compound 10 µM, first compound 3.16 µM) of 16.9% and a viability, T/C (second compound 10 µM, first compound 10 µM) of 3.22%.
With C=CC(=O)Nc1cc(Nc2nccc(-c3cn(C)c4ccccc34)n2)c(OC)cc1N(C)CCN(C)C + C=CC(=O)N1CCN(c2nc(OCC3CCCN3C)nc3c(F)c(-c4nc(N)cc(C)c4C(F)(F)F)c(Cl)cc23)C(C)C1 the IC50 (second compound 0.00316 µM) was over 1000 nM, the IC50 (second compound 0.01 µM) was over 1000 nM and the IC50 (second compound 0.0316 µM) was over 1000 nM. For the same molecule, the IC50 (second compound 0.1 µM) was over 1000 nM, the IC50 (second compound 0.316 µM) was over 1000 nM and the IC50 (second compound 1 µM) was over 1000 nM. For the same molecule, the viability, T/C (second compound 0.00316 µM, first compound 0.00316 µM) was 80.7%, the viability, T/C (second compound 0.00316 µM, first compound 0.01 µM) was 119% and the viability, T/C (second compound 0.00316 µM, first compound 0.0316 µM) was 91.5%. For the same molecule, the viability, T/C (second compound 0.00316 µM, first compound 0.1 µM) was 69.9%, the viability, T/C (second compound 0.00316 µM, first compound 0.316 µM) was 64.8% and the viability, T/C (second compound 0.00316 µM, first compound 1 µM) was 72.9%. It also gave a viability, T/C (second compound 0.01 µM, first compound 0.00316 µM) of 83.7%, a viability, T/C (second compound 0.01 µM, first compound 0.01 µM) of 97.5% and a viability, T/C (second compound 0.01 µM, first compound 0.0316 µM) of 90.5%. For the same molecule, the viability, T/C (second compound 0.01 µM, first compound 0.1 µM) was 71.8%, the viability, T/C (second compound 0.01 µM, first compound 0.316 µM) was 61.3% and the viability, T/C (second compound 0.01 µM, first compound 1 µM) was 56.6%. It also gave a viability, T/C (second compound 0.0316 µM, first compound 0.00316 µM) of 86.6%, a viability, T/C (second compound 0.0316 µM, first compound 0.01 µM) of 129% and a viability, T/C [1] of 86.1%. The viability, T/C [2] was 96%, the viability, T/C [3] was 80.5% and the viability, T/C [4] was 52.8%. The viability, T/C (second compound 0.1 µM, first compound 0.00316 µM) was 65.5%, the viability, T/C (second compound 0.1 µM, first compound 0.01 µM) was 123% and the viability, T/C [5] was 89.4%. It also gave a viability, T/C [6] of 75.4%, a viability, T/C [7] of 87.9% and a viability, T/C [8] of 69.2%. The viability, T/C (second compound 0.316 µM, first compound 0.00316 µM) was 74.9%, the viability, T/C (second compound 0.316 µM, first compound 0.01 µM) was 99.9% and the viability, T/C [9] was 100%. It also gave a viability, T/C [10] of 117%, a viability, T/C [11] of 82.6% and a viability, T/C [12] of 67%. It also gave a viability, T/C (second compound 1 µM, first compound 0.00316 µM) of 90.8%, a viability, T/C (second compound 1 µM, first compound 0.01 µM) of 96.9% and a viability, T/C [13] of 81.7%. The viability, T/C [14] was 88.4%, the viability, T/C [15] was 88.6% and the viability, T/C [16] was 65.6%.
